Measurements taken from US20230338337A1, “BIOMARKERS FOR CANCER THERAPY USING MDM2 ANTAGONISTS” (OTSUKA PHARMACEUTICAL CO., LTD., priority 2019, published 2023).
Like-named read-outs stand apart in the source and are kept apart here.

What was measured:
[1] = biological target: MDM2-p53 interaction (in vitro translated MDM2) (Homo sapiens (Human), UniProt Q00987); test: MDM2-p53 interaction 96-well plate binding assay (ELISA); conditions: for MDM2 % inhibition at 0.0010: at 0.0010 μM; for MDM2 % inhibition at 0.10: at 0.10 μM
Chain of MDM2-p53 interaction (in vitro translated MDM2) (Q00987 whole entry): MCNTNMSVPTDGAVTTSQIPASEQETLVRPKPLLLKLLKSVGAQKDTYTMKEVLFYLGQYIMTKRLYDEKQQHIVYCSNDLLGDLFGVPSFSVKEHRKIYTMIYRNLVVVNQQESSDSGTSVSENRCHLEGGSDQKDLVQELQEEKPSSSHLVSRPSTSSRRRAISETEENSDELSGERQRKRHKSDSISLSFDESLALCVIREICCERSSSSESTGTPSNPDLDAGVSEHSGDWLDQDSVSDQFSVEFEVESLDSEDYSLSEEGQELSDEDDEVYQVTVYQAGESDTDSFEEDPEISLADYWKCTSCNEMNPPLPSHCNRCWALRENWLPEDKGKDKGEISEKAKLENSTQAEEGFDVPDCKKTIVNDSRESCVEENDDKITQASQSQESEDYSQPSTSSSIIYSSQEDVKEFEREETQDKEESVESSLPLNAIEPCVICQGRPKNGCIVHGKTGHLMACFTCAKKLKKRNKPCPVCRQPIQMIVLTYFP

SJSA-1 = test: Protocol B: CellTiter-Glo cell viability assay; conditions: read-out: SJSA1 IC50 (μM) (Protocol B)

1-({[(1R)-1-(4-chlorophenyl)-2-[(5-chloropyrimidin-2-yl)methyl]-7-fluoro-5-[1-(4-fluoropiperidin-4-yl)-1-hydroxypropyl]-3-oxo-2,3-dihydro-1H-isoindol-1-yl]oxy}methyl)cyclopropane-1-carbonitrile [Example 545]
MDM2 % inhibition at 0.0010 [1]: 94%@0.0010

1-({[(1R)-1-(4-chlorophenyl)-2-[(5-chloropyrimidin-2-yl)methyl]-7-fluoro-5-[1-hydroxy-1-(1-methyl-1H-pyrazol-4-yl)ethyl]-3-oxo-2,3-dihydro-1H-isoindol-1-yl]oxy}methyl)cyclopropane-1-carboxamide [Example 214]
IC50 (SJSA-1; Protocol B): 0.22 µM

1-({[(1R)-1-(4-chlorophenyl)-2-[(5-chloropyrimidin-2-yl)methyl]-7-fluoro-5-[2-hydroxy-1-(piperazin-1-yl)butan-2-yl]-3-oxo-2,3-dihydro-1H-isoindol-1-yl]oxy}methyl)cyclopropane-1-carbonitrile [Example 536]
MDM2 % inhibition at 0.0010 [1]: 64%@0.0010

1-({[(1R)-1-(4-chlorophenyl)-2-[(5-chloropyrimidin-2-yl)methyl]-7-fluoro-5-[2-hydroxy-1-(piperazin-1-yl)butan-2-yl]-3-oxo-2,3-dihydro-1H-isoindol-1-yl]oxy}methyl)cyclopropane-1-carbonitrile [Example 537]
IC50 (SJSA-1; Protocol B): 0.76 µM

1-({[(1R)-1-(4-chlorophenyl)-7-fluoro-2-[(5-fluoropyridin-2-yl)methyl]-5-[1-hydroxy-1-(1-methyl-1H-pyrazol-4-yl)ethyl]-3-oxo-2,3-dihydro-1H-isoindol-1-yl]oxy}methyl)cyclopropane-1-carboxamide [Example 209]
IC50 (SJSA-1; Protocol B): 0.45 µM

1-({[(1R)-2-[(4-chloro-2-methanesulfonylphenyl)methyl]-1-(4-chlorophenyl)-7-fluoro-5-[1-hydroxy-1-(1-methyl-1H-pyrazol-4-yl)ethyl]-3-oxo-2,3-dihydro-1H-isoindol-1-yl]oxy}methyl)cyclopropane-1-carboxamide [Example 74]
IC50 (SJSA-1; SJSA-1, CellTiter-Glo, 72 hrs): 1 µM

2-[(5-chloro-3-hydroxypyridin-2-yl)methyl]-3-(4-chlorophenyl)-4-fluoro-6-[(1S)-1-hydroxy-1-(1-methylpiperidin-4-yl)propyl]-3-[(3S)-oxolan-3-yloxy]-2,3-dihydro-1H-isoindol-1-one [Example 568]
MDM2 % inhibition at 0.0010 [1]: 76%@0.0010

2-{[(1R)-1-(4-chlorophenyl)-1-[(1-cyanocyclopropyl)methoxy]-7-fluoro-5-[1-hydroxy-1-(1-methyl-1H-imidazol-4-yl)propyl]-3-oxo-2,3-dihydro-1H-isoindol-2-yl]methyl}pyrimidine-5-carbonitrile [Example 463]
MDM2 % inhibition at 0.10 [1]: 73%@0.10

2-{[(1R)-1-(4-chlorophenyl)-7-fluoro-5-[1-hydroxy-1-(1-methyl-1H-imidazol-4-yl)propyl]-3-oxo-1-{[trans-3-hydroxycyclobutyl]methoxy}-2,3-dihydro-1H-isoindol-2-yl]methyl}pyrimidine-5-carbonitrile [Example 484]
IC50 (SJSA-1; Protocol B): 4.9 µM

2-{[(1R)-1-(4-chlorophenyl)-7-fluoro-5-[(1R)-1-(4-fluorooxan-4-yl)-1-hydroxypropyl]-3-oxo-1-[cis-3-hydroxycyclobutoxy]-2,3-dihydro-1H-isoindol-2-yl]methyl}pyrimidine-5-carbonitrile [Example 505]
MDM2 % inhibition at 0.0010 [1]: 60%@0.0010

2-{[(1R)-1-(4-chlorophenyl)-7-fluoro-5-{1-hydroxy-1-[trans-4-hydroxycyclohexyl]propyl}-3-oxo-1-[(3S)-oxolan-3-yloxy]-2,3-dihydro-1H-isoindol-2-yl]methyl}pyrimidine-5-carbonitrile [Example 503]
MDM2 % inhibition at 0.0010 [1]: 87%@0.0010

4-{[(1R)-1-(4-chlorophenyl)-7-fluoro-5-[1-hydroxy-1-(1-methyl-1H-imidazol-4-yl)propyl]-3-oxo-1-[(3S)-oxolan-3-yloxy]-2,3-dihydro-1H-isoindol-2-yl]methyl}-3-(hydroxymethyl)benzonitrile [Example 92]
IC50 (SJSA-1; SJSA-1, CellTiter-Glo, 72 hrs): 0.084 µM

5-chloro-2-{[(1R)-1-(4-chlorophenyl)-7-fluoro-5-[(1R)-1-(4-fluorooxan-4-yl)-1-hydroxypropyl]-1-methoxy-3-oxo-2,3-dihydro-1H-isoindol-2-yl]methyl}pyridine-3-carboxylic acid (tris(hydroxymethyl)aminomethane salt) [Example 514]
IC50 (SJSA-1; Protocol B): 0.64 µM

6-{[1-(4-chlorophenyl)-7-fluoro-5-[1-hydroxy-1-(1-methyl-1H-pyrazol-4-yl)ethyl]-3-oxo-1-[cis-3-hydroxycyclobutoxy]-2,3-dihydro-1H-isoindol-2-yl]methyl}pyridine-3-carbonitrile [Example 355]
IC50 (SJSA-1; Protocol B): 4.7 µM

6-{[1-(4-chlorophenyl)-7-fluoro-5-[1-hydroxy-1-(1-methyl-1H-pyrazol-4-yl)ethyl]-3-oxo-1-[cis-3-hydroxycyclobutoxy]-2,3-dihydro-1H-isoindol-2-yl]methyl}pyridine-3-carbonitrile [Example 356]
IC50 (SJSA-1; Protocol B): 0.96 µM

6-{[(1R)-1-(4-chlorophenyl)-1-[(1-cyanocyclopropyl)methoxy]-7-fluoro-5-[1-hydroxy-1-(1-methyl-1H-pyrazol-4-yl)ethyl]-3-oxo-2,3-dihydro-1H-isoindol-2-yl]methyl}pyridine-3-carbonitrile [Example 211]
IC50 (SJSA-1; Protocol B): 0.36 µM

6-{[(1R)-1-(4-chlorophenyl)-7-fluoro-5-[1-(4-fluoropiperidin-4-yl)-1-hydroxypropyl]-3-oxo-1-[(3S)-oxolan-3-yloxy]-2,3-dihydro-1H-isoindol-2-yl]methyl}pyridine-3-carbonitrile [Example 546]
MDM2 % inhibition at 0.0010 [1]: 86%@0.0010

6-{[(1R)-1-(4-chlorophenyl)-7-fluoro-5-[1-hydroxy-1-(1-methyl-1H-imidazol-4-yl)butyl]-3-oxo-1-[(3S)-oxolan-3-yloxy]-2,3-dihydro-1H-isoindol-2-yl]methyl}pyridine-3-carbonitrile [Example 473]
MDM2 % inhibition at 0.10 [1]: 44%@0.10

6-{[(1R)-1-(4-chlorophenyl)-7-fluoro-5-[1-hydroxy-1-(1-methyl-1H-pyrazol-4-yl)propyl]-3-oxo-1-[(3S)-oxolan-3-yloxy]-2,3-dihydro-1H-isoindol-2-yl]methyl}pyridine-3-carbonitrile [Example 358]
MDM2 % at concentration [1]: 74%@0.0010

CCC(O)(c1cc(F)c2c(c1)C(=O)N(Cc1ncc(C#N)cn1)[C@@]2(O[C@H]1CCOC1)c1ccc(Cl)cc1)c1cn(C)cn1 (stereo partly drawn) [Example 369, 2-{[(1R)-1-(4-chlorophenyl)-7-fluoro-5-[1-hydroxy-1-(1-methyl-1H-imidazol-4-yl)propyl]-3-oxo-1-[(3S)-oxolan-3-yloxy]-2,3-dihydro-1H-isoindol-2-yl]methyl}pyrimidine-5-carbonitrile]
IC50 (SJSA-1; Protocol B): 0.062 µM

[2H]C([2H])([2H])C1(C([2H])([2H])O[C@]2(c3ccc(Cl)cc3)c3c(F)cc(C(O)(CC)c4cn(C)cn4)cc3C(=O)N2Cc2ccc(C#N)cn2)CC1 (stereo partly drawn) [Example 439, 6-{[(1R)-1-(4-chlorophenyl)-7-fluoro-1-({1-[hydroxy(^2H2)methyl]cyclopropyl}(^2H2)methoxy)-5-[1-hydroxy-1-(1-methyl-1H-imidazol-4-yl)propyl]-3-oxo-2,3-dihydro-1H-isoindol-2-yl]methyl}pyridine-3-carbonitrile]
IC50 (SJSA-1; Protocol B): 0.03 µM

(3R)-2-[(5-chloro-3-hydroxypyridin-2-yl)methyl]-3-(4-chlorophenyl)-4-fluoro-6-[1-hydroxy-1-(1-methyl-1H-imidazol-4-yl)propyl]-3-[cis-3-hydroxycyclobutoxy]-2,3-dihydro-1H-isoindol-1-one [Example 488]
MDM2 % inhibition at 0.10 [1]: 56%@0.10

(3R)-3-(4-Chlorophenyl)-2-[(1R)-1-(5-chloropyridin-2-yl)-2,3-dihydroxypropyl]-4-fluoro-3-[(1-hydroxycyclopropyl)methoxy]-6-(2-hydroxypropan-2-yl)-2,3-dihydro-1H-isoindol-1-one [Example 331]
MDM2 % at concentration ([1]; at 0.030 μM): 49%@0.030

(3R)-3-(4-chlorophenyl)-2-[(5-chloropyridin-2-yl)methyl]-4-fluoro-6-[1-(4-fluoropiperidin-4-yl)-1-hydroxypropyl]-3-[(2R)-2-hydroxypropoxy]-2,3-dihydro-1H-isoindol-1-one [Example 549]
MDM2 % inhibition at 0.0010 [1]: 85%@0.0010

(3R)-3-(4-chlorophenyl)-2-[(5-chloropyrimidin-2-yl)methyl]-4-fluoro-6-[(1R)-1-hydroxy-1-(1-methylpiperidin-4-yl)propyl]-3-[(3S)-oxolan-3-yloxy]-2,3-dihydro-1H-isoindol-1-one [Example 567]
MDM2 % inhibition at 0.10 [1]: 57%@0.10

(3R)-3-(4-chlorophenyl)-2-[(5-chloropyrimidin-2-yl)methyl]-4-fluoro-6-[(1S)-1-hydroxy-1-(1-methylpiperidin-4-yl)propyl]-3-[cis-3-hydroxycyclobutoxy]-2,3-dihydro-1H-isoindol-1-one [Example 560]
MDM2 % inhibition at 0.0010 [1]: 30%@0.0010

(3R)-3-(4-chlorophenyl)-2-[(5-chloropyrimidin-2-yl)methyl]-4-fluoro-6-{1-hydroxy-1-[trans-4-hydroxycyclohexyl]propyl}-3-methoxy-2,3-dihydro-1H-isoindol-1-one [Example 511]
MDM2 % inhibition at 0.0010 [1]: 72%@0.0010

(3R)-3-(4-chlorophenyl)-4-fluoro-6-[1-hydroxy-1-(1-methyl-1H-pyrazol-4-yl)ethyl]-3-[(1-hydroxycyclopropyl)methoxy]-2-[(5-methoxypyridin-2-yl)methyl]-2,3-dihydro-1H-isoindol-1-one [Example 228]
MDM2 % at concentration ([1]; at 0.010 μM): 61%@0.010
